Experiments:
[1] = biological target: T1, Bifunctional dihydrofolate reductase-thymidylate synthase (Toxoplasma gondii, UniProt Q07422)
T1 sequence (Q07422 whole entry): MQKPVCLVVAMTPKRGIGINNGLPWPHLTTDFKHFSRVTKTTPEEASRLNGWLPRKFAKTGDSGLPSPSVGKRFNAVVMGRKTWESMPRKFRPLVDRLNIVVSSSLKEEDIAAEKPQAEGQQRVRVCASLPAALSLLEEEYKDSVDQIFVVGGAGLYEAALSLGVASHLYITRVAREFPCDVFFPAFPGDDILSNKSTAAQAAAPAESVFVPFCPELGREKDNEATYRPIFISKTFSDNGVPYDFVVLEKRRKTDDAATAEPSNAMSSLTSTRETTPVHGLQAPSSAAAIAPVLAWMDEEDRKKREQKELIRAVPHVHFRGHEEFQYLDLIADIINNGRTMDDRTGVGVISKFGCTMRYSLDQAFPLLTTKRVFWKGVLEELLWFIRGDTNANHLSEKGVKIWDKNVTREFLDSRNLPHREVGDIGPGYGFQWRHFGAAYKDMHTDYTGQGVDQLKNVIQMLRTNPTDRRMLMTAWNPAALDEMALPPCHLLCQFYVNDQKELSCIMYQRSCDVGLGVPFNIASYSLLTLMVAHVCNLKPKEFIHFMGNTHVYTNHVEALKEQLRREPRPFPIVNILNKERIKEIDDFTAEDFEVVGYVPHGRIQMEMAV
Description: Inhibitory activity against dihydrofolate reductase (DHFR) from Toxoplasma gondii

Dihydrofolate reductase [2] = biological target: T2, Dihydrofolate reductase (Pneumocystis carinii, UniProt P16184)
T2 sequence (P16184 whole entry): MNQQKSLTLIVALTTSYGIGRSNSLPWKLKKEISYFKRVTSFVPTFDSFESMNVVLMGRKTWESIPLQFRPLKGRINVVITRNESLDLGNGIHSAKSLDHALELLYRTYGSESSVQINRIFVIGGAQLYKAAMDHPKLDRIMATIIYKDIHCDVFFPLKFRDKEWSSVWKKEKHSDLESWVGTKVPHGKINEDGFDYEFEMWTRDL
Description: Inhibitory activity against dihydrofolate reductase (DHFR) from Pneumocystis carinii

Dihydrofolate reductase [3] = biological target: T3, Dihydrofolate reductase (Rattus norvegicus, UniProt Q920D2)
T3 sequence (Q920D2 whole entry): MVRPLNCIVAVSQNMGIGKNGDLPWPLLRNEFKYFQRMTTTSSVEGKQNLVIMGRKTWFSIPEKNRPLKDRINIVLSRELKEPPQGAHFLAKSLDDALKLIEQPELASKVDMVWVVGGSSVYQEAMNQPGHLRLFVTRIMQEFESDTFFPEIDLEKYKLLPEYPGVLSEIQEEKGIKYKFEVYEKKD
Description: Inhibitory activity against dihydrofolate reductase (DHFR) from rat liver

SMILES | IC50 [1] [nM] | IC50 (Dihydrofolate reductase [2]) [nM] | IC50 (Dihydrofolate reductase [3]) [nM]
COc1ccc(Sc2ccc3nc(N)nc(N)c3n2)cc1 | 45 | 700 | 75
COc1ccc(Sc2ccc3nc(N)nc(N)c3n2)cc1OC | 19 | 86 | 18
Nc1nc(N)c2nc(Nc3ccc(Cl)cc3)ccc2n1 | 830 | – | 820
Nc1nc(N)c2nc(Nc3ccc4ccccc4c3)ccc2n1 | 1100 | 15000 | 2000

From ChEMBL document CHEMBL1131172 (J Med Chem, 1998)
